Measured values reported in BigSolDB 2.1.

Nc1cccc(N)n1
Details	solubility (mole fraction)
in ethanol, 266.95 K	0.0751
in ethanol, 270.35 K	0.0853
in ethanol, 274.15 K	0.0992
in ethanol, 277.45 K	0.108
in ethanol, 281.15 K	0.123
in ethanol, 286.35 K	0.148
in ethanol, 290.15 K	0.166
in ethanol, 293.55 K	0.182
in ethanol, 297.15 K	0.204
in ethanol, 301.15 K	0.226
in ethanol, 304.55 K	0.236
in ethanol, 307.95 K	0.266
in ethanol, 312.05 K	0.282
in ethanol, 316.25 K	0.319
in ethanol, 321.25 K	0.342
in ethylbenzene, 273.25 K	0.00022
in ethylbenzene, 277.15 K	0.00026
in ethylbenzene, 282.25 K	0.00033
in ethylbenzene, 285.55 K	0.00035
in ethylbenzene, 289.45 K	0.00046
in ethylbenzene, 293.05 K	0.00049
in ethylbenzene, 298.65 K	0.00066
in ethylbenzene, 302.25 K	0.00069
in ethylbenzene, 305.35 K	0.00086
in ethylbenzene, 309.55 K	0.0009
in ethylbenzene, 313.15 K	0.00113
in ethylbenzene, 317.35 K	0.0012
in ethylbenzene, 321.25 K	0.0015
in ethylbenzene, 326.15 K	0.00164
in ethylbenzene, 329.45 K	0.00197
in ethylbenzene, 333.35 K	0.00212
in ethylbenzene, 336.95 K	0.00252
in ethylbenzene, 341.05 K	0.00288
in ethylbenzene, 346.25 K	0.0033
in ethylbenzene, 349.55 K	0.00385
in ethylbenzene, 353.05 K	0.0043
in ethylbenzene, 357.05 K	0.00474
in ethylbenzene, 361.15 K	0.00577
in isopropanol, 266.25 K	0.0222
in isopropanol, 269.95 K	0.028
in isopropanol, 274.15 K	0.0302
in isopropanol, 277.55 K	0.0379
in isopropanol, 281.15 K	0.0401
in isopropanol, 285.65 K	0.0512
in isopropanol, 290.15 K	0.0565
in isopropanol, 293.65 K	0.068
in isopropanol, 297.25 K	0.0732
in isopropanol, 301.15 K	0.0887
in isopropanol, 305.15 K	0.0976
in isopropanol, 308.25 K	0.114
in isopropanol, 311.15 K	0.12
in isopropanol, 315.85 K	0.147
in isopropanol, 319.25 K	0.159
in methanol, 266.15 K	0.0598
in methanol, 269.95 K	0.066
in methanol, 274.15 K	0.0779
in methanol, 278.05 K	0.0888
in methanol, 281.15 K	0.0933
in methanol, 285.95 K	0.111
in methanol, 290.15 K	0.125
in methanol, 297.15 K	0.15
in methanol, 301.15 K	0.165
in methanol, 304.55 K	0.178
in methanol, 307.95 K	0.188
in methanol, 311.15 K	0.207
in methanol, 317.85 K	0.233
in o-xylene, 273.35 K	0.00128
in o-xylene, 277.15 K	0.0014
in o-xylene, 282.25 K	0.00185
in o-xylene, 285.55 K	0.00201
in o-xylene, 289.45 K	0.00252
in o-xylene, 293.65 K	0.00283
in o-xylene, 297.55 K	0.00351
in o-xylene, 302.25 K	0.00395
in o-xylene, 305.35 K	0.00469
in o-xylene, 309.55 K	0.00517
in o-xylene, 314.15 K	0.0064
in o-xylene, 317.35 K	0.00695
in o-xylene, 321.25 K	0.00838
in o-xylene, 325.95 K	0.00937
in o-xylene, 329.45 K	0.011
in o-xylene, 333.35 K	0.0121
in o-xylene, 336.95 K	0.0144
in o-xylene, 341.15 K	0.0153
in o-xylene, 346.25 K	0.0194
in o-xylene, 349.55 K	0.0226
in o-xylene, 353.45 K	0.024
in o-xylene, 357.05 K	0.0292
in o-xylene, 361.05 K	0.034
in o-xylene, 361.25 K	0.0367
in toluene, 273.25 K	0.00149
in toluene, 277.15 K	0.00191
in toluene, 281.25 K	0.00214
in toluene, 285.55 K	0.0027
in toluene, 289.45 K	0.00304
in toluene, 293.65 K	0.00375
in toluene, 297.55 K	0.00417
in toluene, 301.45 K	0.0051
in toluene, 305.35 K	0.00558
in toluene, 309.55 K	0.00704
in toluene, 313.45 K	0.00733
in toluene, 317.35 K	0.00919
in toluene, 321.25 K	0.00942
in toluene, 325.55 K	0.0124
in toluene, 329.45 K	0.0127
in toluene, 333.35 K	0.0162
in toluene, 337.25 K	0.0164
in toluene, 341.15 K	0.0207
in toluene, 345.65 K	0.022
in toluene, 349.55 K	0.0277
in toluene, 353.45 K	0.0283
in toluene, 357.35 K	0.0355
